Experimental data as given in ChEMBL document CHEMBL1149059, “Biological activity of some coumarins from Sri Lankan Rutaceae” (J Nat Prod, 1994).
Values after ≈ are worked out from the molar mass of the structure shown.

What was measured:
Vero = experiment: Cytotoxicity against african green monkey Vero cells after 7 days by XTT assay; type: cell-based; conditions: Chlorocebus sabaeus, 168 h
Saccharomyces cerevisiae [1] = experiment: DNA damaging activity against DNA repair-deficient yeast rad 6 assessed as drug level required to produce 12 mm zone of inhibition; type: functional
Saccharomyces cerevisiae [2] = experiment: DNA damaging activity against DNA repair-deficient yeast rad 52 assessed as drug level required to produce 12 mm zone of inhibition; type: functional
Saccharomyces cerevisiae [3] = experiment: DNA damaging activity against DNA repair-proficient yeast RAD+ assessed as drug level required to produce 12 mm zone of inhibition; type: functional
Saccharomyces cerevisiae [4] = experiment: DNA damaging activity against DNA repair-deficient yeast rad 52Y assessed as drug level required to produce 12 mm zone of inhibition; type: functional

SMILES | IC50 (Vero) [µg/mL] | IC12 (Saccharomyces cerevisiae [1]) [µg/mL] | IC12 (Saccharomyces cerevisiae [2]) [µg/mL] | IC12 (Saccharomyces cerevisiae [3]) [µg/mL] | IC12 (Saccharomyces cerevisiae [4]) [µg/mL]
CC[C@@]1(O)C(=O)OCc2c1cc1n(c2=O)Cc2cc3ccccc3nc2-1 [CAMPTOTHECIN] | 0.02 (≈ 0.0574 µM) | 8.7 | 0.6 | 110 | 
CC1(C)C=Cc2c(ccc3ccc(=O)oc23)O1 [SESALIN] | 12 (≈ 52.6 µM) | 480 | 33 | 220 | 87
CC1(C)C=Cc2cc3ccc(=O)oc3cc2O1 [XANTHYLETIN] | > 20 | 318 | 52 | 21 | 87
